Test results published in patent US20200254014A1, “ANTIMICROBIAL COMPOSITIONS AND METHODS FOR THEIR PRODUCTION” (National University of Ireland, Galway, priority 2013, published 2020).

Tests used:
E. coli ATCC 25922 [1] = assay: MIC of iodine based antimicrobials in absence and presence of organic material; type: cell-based
Description: As a comparison, PVP-1 or povidone iodine, used frequently in hospital setting as a topical antiseptic, was used as a source of free iodine (12).

E. coli ATCC 25922 [2] = type: cell-based
Description: In an attempt to induce a tolerance to an antimicrobial, the micro-broth dilution method was utilised, with repeated passaging, with E. coli ATCC 25922 and a number of antibiotics, as well as the composition of the invention containing hydrogen peroxide and potassium iodide. […] Doubling dilutions of antimicrobial compositions were made using a 96 well plate. The well contents were inoculated with 10^4 cfu ml^−1 E. coli ATCC 25922 and allowed to incubate.

S. aureus BH1CC (MRSA) = details: strain isolated from Beaumont hospital; cited from earlier work

OO [Example H2O2, hydrogen peroxide]
MIC (E. coli ATCC 25922 [1]; broth): 20 to 40 µg/mL

C[C@H]1COc2c(N3CCN(C)CC3)c(F)cc3c(=O)c(C(=O)O)cn1c23 [levofloxacin]
increase in tolerance versus pre-passaging (E. coli ATCC 25922 [2]; after 10 passages): 8 times

Cc1onc(-c2ccccc2)c1C(=O)N[C@@H]1C(=O)N2[C@@H]1SC(C)(C)[C@@H]2C(=O)O [oxacillin]
oxacillin MIC (S. aureus BH1CC (MRSA)): > 256 µg/mL

polymyxin B
resistance of the organism after passaging in presence of the antibiotic (E. coli ATCC 25922 [2]; after only 8 passages): completely resistant

polyvinylpyrrilidone, PVP-I, also known as povidone-iodine
MIC (E. coli ATCC 25922 [1]; in LB): >250 µg/mL | MIC (E. coli ATCC 25922 [1]; milk): >250 µg/mL | MIC (E. coli ATCC 25922 [1]; saline): 1 to 2 µg/mL
